From article PMC3261875 (PLoS ONE, 2012) come the findings set out here.

The test addresses T1, human heme oxygenase-2 (hHO-2) (Homo sapiens, UniProt P30519).
T1 construct: gene HMOX2; truncation derivative, 1–264 amino acids with an N-terminal His-tag
T1 sequence (P30519 1-264): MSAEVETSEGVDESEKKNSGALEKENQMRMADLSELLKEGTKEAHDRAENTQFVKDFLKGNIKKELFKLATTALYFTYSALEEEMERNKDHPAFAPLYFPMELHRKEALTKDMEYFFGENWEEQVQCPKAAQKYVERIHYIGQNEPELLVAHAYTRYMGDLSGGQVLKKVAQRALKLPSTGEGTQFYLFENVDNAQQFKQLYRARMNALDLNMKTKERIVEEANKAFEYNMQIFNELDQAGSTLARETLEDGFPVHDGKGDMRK
The test is described as follows: spectral (Soret) binding and heme degradation assay on purified protein.

Molecules are shown by their SMILES.

For the molecule `O=C(CC(c1ccccc1)c1ccccc1)Cn1ccnc1` [QC-308, 1-(1H-imidazol-1-yl)-4,4-diphenyl-2-butanone], the “spectral (Soret) binding and heme degradation assay on purified protein” value is reported as “the spectral changes upon addition of QC-308 were similar to those seen for hHO-1”.
